Source: patent publication US4871722A, “Synergistic veterinary composition and/or fodder premix and process for preparing same” (priority 1987, dated 1989)
Read-outs that look alike come from different tables or passages of the source.

Assays:
Staphylococcus aureus = experiment: MIC by broth-dilution method (bactericidal effect), strain A; assay type: cell-based; settings: read-out: MIC value
Experimental: (§1) The minimum inhibiting concentration (MIC) values of the above compounds and their two- or three-component combinations were determined in phenol-red - glucose broth (product of the Difco Co.) by using the broth-dilution method on the following bacterium strains isolated from chickens: […]

Escherichia coli 1 = experiment: MIC by broth-dilution method (bactericidal effect), strain B; assay type: cell-based
Experimental: as §1

Escherichia coli 2 = experiment: MIC by broth-dilution method (bactericidal effect), strain C; assay type: cell-based
Experimental: as §1

Salmonella typhimurium = experiment: MIC by broth-dilution method (bactericidal effect), strain D; assay type: cell-based; settings: Salmonella enterica, read-out: MIC value
Experimental: (§2) The minimum inhibiting concentration (MIC) values of the above compounds and their two- or three-component combinations were determined in phenol-red - glucose broth (product of the Difco Co.) by using the broth-dilution method on the following bacterium strains isolated from chickens:
(§3) D: Salmonella typhimurium

Pasteurella multocida = experiment: MIC by broth-dilution method (bactericidal effect), strain E; assay type: cell-based; settings: read-out: MIC value
Experimental: as §1

Aspergillus fumigatus = experiment: MIC by broth-dilution method (bactericidal effect), strain F; assay type: cell-based; settings: read-out: MIC value
Experimental: as §1

[1] = test system: bacterium strains isolated from chickens; experiment: in vitro bacterial growth inhibition over the bacterium strains tested; assay type: cell-based; settings: single compound
Experimental: as §2, §3

[2] = in vivo
[3] = in vivo; cited from earlier work
[4] = strain A: Staphylococcus aureus, phenol-red - glucose broth, bactericidal effect
[5] = strain B: Escherichia coli 1, phenol-red - glucose broth, bactericidal effect, read-out: MIC value
[6] = strain C: Escherichia coli 2, phenol-red - glucose broth, bactericidal effect, read-out: MIC value
[7] = strain D: Salmonella typhimurium, phenol-red - glucose broth, bactericidal effect
[8] = strain E: Pasteurella multocida, phenol-red - glucose broth, bactericidal effect
[9] = strain F: Aspergillus fumigatus, phenol-red - glucose broth, bactericidal effect
[10] = Escherichia coli, 1, read-out: MIC value
[11] = Escherichia coli, 2, read-out: MIC value

Row | Compound | MIC (Staphylococcus aureus; [4]) | MIC (Escherichia coli 1; [5]) | MIC (Escherichia coli 2; [6]) | MIC (Salmonella typhimurium; [7]) | MIC (Pasteurella multocida; [8]) | MIC (Aspergillus fumigatus; [9]) | dose necessary for the in vitro antibacterial effect [1] | MIC (Staphylococcus aureus; Staphylococcus aureus) | MIC (Escherichia coli 1; [10]) | MIC (Escherichia coli 2; [11]) | MIC (Salmonella typhimurium; TYPHIMURIUM) | MIC (Pasteurella multocida; Pasteurella multocida) | MIC (Aspergillus fumigatus; Aspergillus fumigatus) | toxicity; damage of haemopoietic organs and vessel walls [3] | other results
1 | COc1cc(Cc2cnc(N)nc2N)cc(OC)c1OC [Trimetoprim, 2,4-diamino-5-(3,4,5-trimethoxybenzyl)pyrimidine] | 200 µg/mL | 200 µg/mL | 200 µg/mL | 200 µg/mL | 100 µg/mL | 200 µg/mL | a very high dose |  |  |  |  |  |  |  | 
2 | Oc1cccc2cccnc12 [8-hydroxyquinoline] |  |  |  |  |  |  | a relatively low dose |  |  |  |  |  |  |  | required therapeutic blood level in the blood plasma [2]: cannot develop in the blood plasma
3 | O=S(=O)(O)O.Oc1cccc2cccnc12 [8-Hydroxyquinoline sulfate, 8-hydroxyquinoline sulfate] |  |  |  |  |  |  |  | 5 µg/mL | 25 µg/mL | 25 µg/mL | 50 µg/mL | 1 µg/mL | 25 µg/mL |  | 
4 | COc1cc(NS(=O)(=O)c2ccc(N)cc2)nc(OC)n1 [Sulfadimethoxine, 2,6-dimethoxy-4-sulfanilamidopyrimidine] | 200 µg/mL | 200 µg/mL | 200 µg/mL | 200 µg/mL | 200 µg/mL | 200 µg/mL |  |  |  |  |  |  |  | no damages of the haemopoietic organs and vessel walls | toxicity compared with other sulfonamides [3]: one of the least toxic ones
5 | COc1ccc(Cc2cnc(N)nc2N)cc1OC [Diaveridine, 2,4-diamino-5-(3,4-dimethoxybenzyl)pyrimidine] |  |  |  |  |  |  | a very high dose | 200 µg/mL | 200 µg/mL | 150 µg/mL | 200 µg/mL | 150 µg/mL | 200 µg/mL |  | 
6 | Nc1ccc(S(=O)(=O)Nc2cnc3ccccc3n2)cc1 [sulfachinoxaline, N-(2-chinoxalinyl)sulfanilamide] |  |  |  |  |  |  |  |  |  |  |  |  |  | the haemopoietic organs and vessel walls of the animals are significantly injured | 
